Experimental data from PubChem BioAssay AID248 (DTP/NCI, 2004).
“And” between values parts separate entries of the source, which are not always exact repeats. Equal entries are not always repeated. Inconclusive results and toxic doses are left out. Cut-off read from the data, not from the text of the source: active = T/C of 150% or more; inactive = T/C below 125%.

Test system: L1210 leukemia ip in BDF1 mice, survival T/C
Test: NCI In Vivo Anticancer Drug Screen. Data for tumor model L1210 Leukemia (intraperitoneal) in B6D2F1 (BDF1) mice
Settings: endpoint: mean survival time, higher = longer survival
In short: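 In this screen, tumor-bearing mice given compound are compared to those given vehicle, and their survival values are reported as a treated-to-control quotient.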

[1] = dose: 100.0 mg/kg/injection, schedule: Q01DX001 (ip), vehicle: Klucel (hydroxypropylcellulose) (HPC)
[2] = dose: 200.0 mg/kg/injection, schedule: Q01DX001 (ip), vehicle: Klucel (hydroxypropylcellulose) (HPC)
[3] = dose: 400.0 mg/kg/injection, schedule: Q01DX001 (ip), vehicle: Klucel (hydroxypropylcellulose) (HPC)
[4] = dose: 100.0 mg/kg/injection, schedule: Q01DX009 (ip), vehicle: saline
[5] = dose: 100.0 mg/kg/injection, schedule: Q04DX003 (ip), vehicle: saline
[6] = dose: 200.0 mg/kg/injection, schedule: Q01DX009 (ip), vehicle: saline
[7] = dose: 200.0 mg/kg/injection, schedule: Q04DX003 (ip), vehicle: saline
[8] = dose: 400.0 mg/kg/injection, schedule: Q01DX009 (ip), vehicle: saline
[9] = dose: 400.0 mg/kg/injection, schedule: Q04DX003 (ip), vehicle: saline
[10] = dose: 100.0 mg/kg/injection, schedule: Q04DX002 (ip), vehicle: Klucel (hydroxypropylcellulose) (HPC)
[11] = dose: 200.0 mg/kg/injection, schedule: Q04DX002 (ip), vehicle: Klucel (hydroxypropylcellulose) (HPC)
[12] = dose: 400.0 mg/kg/injection, schedule: Q04DX002 (ip), vehicle: Klucel (hydroxypropylcellulose) (HPC)
[13] = dose: 100.0 mg/kg/injection, schedule: Q01DX009 (ip), vehicle: saline with Tween-80
[14] = dose: 200.0 mg/kg/injection, schedule: Q01DX009 (ip), vehicle: saline with Tween-80
[15] = dose: 100.0 mg/kg/injection, schedule: Q04DX003 (ip), vehicle: saline with Tween-80
[16] = dose: 200.0 mg/kg/injection, schedule: Q04DX003 (ip), vehicle: saline with Tween-80
[17] = dose: 100.0 mg/kg/injection, schedule: Q04DX003 (ip), vehicle: other
[18] = dose: 200.0 mg/kg/injection, schedule: Q04DX003 (ip), vehicle: other
[19] = dose: 400.0 mg/kg/injection, schedule: Q01DX009 (ip), vehicle: saline with Tween-80
[20] = dose: 400.0 mg/kg/injection, schedule: Q04DX003 (ip), vehicle: saline with Tween-80

Measured: T/C

CC(=O)Oc1ccc([N+](=O)[O-])cc1C(OC(C)=O)OC(C)=O
inactive: dose: 55.0 mg/kg/injection, schedule: Q01DX Z (ip), vehicle: methylcellulose (MC) 90 % of control | dose: 83.0 mg/kg/injection, schedule: Q01DX Z (ip), vehicle: methylcellulose (MC) 96 % of control | dose: 125.0 mg/kg/injection, schedule: Q01DX Z (ip), vehicle: methylcellulose (MC) 93 % of control

CCSCC1OC(n2ncc3c(N)ncnc32)C(O)C1O (configuration not stated)
inactive: [1] 98 % of control | [2] 93 % of control | [3] 97 % of control

CCCCCCCCCC(=O)CCC
inactive: [4] 100 % of control | [5] 111 % of control | [6] 96 % of control | [7] 97 % of control | [8] 98 % of control | [9] 105 % of control

CCOC(=O)C(C)F (configuration not stated)
inactive: dose: 50.0 mg/kg/injection, schedule: Q01DX001 (ip), vehicle: carboxymethylcellulose (CMC) 94 % of control | dose: 100.0 mg/kg/injection, schedule: Q01DX001 (ip), vehicle: carboxymethylcellulose (CMC) 89 % of control | dose: 200.0 mg/kg/injection, schedule: Q01DX001 (ip), vehicle: carboxymethylcellulose (CMC) 89 % of control

Oc1ccc2ccccc2c1C(c1ccccc1)N1CCOCC1 (configuration not stated)
inactive: [10] 88 % of control | [11] 88 % of control | [12] 101 % of control

CC(=O)OCC1OC(N2C(=O)/C(=C(/C)c3ccncc3)SC2=S)C(OC(C)=O)C(OC(C)=O)C1OC(C)=O (configuration not stated)
inactive: dose: 25.0 mg/kg/injection, schedule: Q01DX005 (ip), vehicle: water 94 % of control | dose: 50.0 mg/kg/injection, schedule: Q01DX005 (ip), vehicle: water 97 % of control | dose: 100.0 mg/kg/injection, schedule: Q01DX005 (ip), vehicle: water 97 % of control | dose: 200.0 mg/kg/injection, schedule: Q01DX005 (ip), vehicle: water 97 % of control | dose: 400.0 mg/kg/injection, schedule: Q01DX005 (ip), vehicle: water 89 % of control

O=C(CN1C(=O)c2ccccc2C1=O)c1cccc(Br)c1
inactive: dose: 100.0 mg/kg/injection, schedule: Q01DX001 (ip), vehicle: saline 95 % of control | dose: 200.0 mg/kg/injection, schedule: Q01DX001 (ip), vehicle: saline 104 % of control | dose: 400.0 mg/kg/injection, schedule: Q01DX001 (ip), vehicle: saline 103 % of control

O=C(O)C(CCCCC1CCCCC1)CCC1CCCCC1 (configuration not stated)
inactive: dose: 100.0 mg/kg/injection, schedule: Q01DX001 (ip), vehicle: saline with Tween-80 97 % of control | dose: 200.0 mg/kg/injection, schedule: Q01DX001 (ip), vehicle: saline with Tween-80 99 % of control | dose: 400.0 mg/kg/injection, schedule: Q01DX001 (ip), vehicle: saline with Tween-80 94 % of control

N#Cc1ccccc1OCCCCCCCCCCOc1ccccc1C#N
inactive: dose: 75.0 mg/kg/injection, schedule: Q01DX009 (ip), vehicle: Klucel (hydroxypropylcellulose) (HPC) 99 % of control | dose: 150.0 mg/kg/injection, schedule: Q01DX009 (ip), vehicle: Klucel (hydroxypropylcellulose) (HPC) 92 % of control | dose: 300.0 mg/kg/injection, schedule: Q01DX009 (ip), vehicle: Klucel (hydroxypropylcellulose) (HPC) 90 % of control

O=c1nc(NC2OC(CO)C(O)C2O)ccn1C1OC(CO)C(O)C1O (configuration not stated)
inactive: dose: 100.0 mg/kg/injection, schedule: Q01DX005 (ip), vehicle: saline 102 % of control | dose: 200.0 mg/kg/injection, schedule: Q01DX005 (ip), vehicle: saline 108 % of control

COc1ccc(C)cc1NC(=O)Nc1cc(C(F)(F)F)ccc1Cl
inactive: dose: 100.0 mg/kg/injection, schedule: Q01DX009 (ip), vehicle: Klucel (hydroxypropylcellulose) (HPC) 88 % of control | dose: 200.0 mg/kg/injection, schedule: Q01DX009 (ip), vehicle: Klucel (hydroxypropylcellulose) (HPC) 95 % of control | dose: 400.0 mg/kg/injection, schedule: Q01DX009 (ip), vehicle: Klucel (hydroxypropylcellulose) (HPC) 90 % of control

O=c1oc(-c2ccc3c(c2)OCO3)nc2ccccc12
inactive: dose: 50.0 mg/kg/injection, schedule: Q01DX009 (ip), vehicle: saline with Tween-80 94 % of control | [13] 94 % of control | [14] 94 % of control

N#CCC(CC#N)C(c1cccc2ccccc12)c1cccc2ccccc12
inactive: dose: 75.0 mg/kg/injection, schedule: Q04DX002 (ip), vehicle: Klucel (hydroxypropylcellulose) (HPC) 94 % of control | dose: 150.0 mg/kg/injection, schedule: Q04DX002 (ip), vehicle: Klucel (hydroxypropylcellulose) (HPC) 101 % of control | dose: 300.0 mg/kg/injection, schedule: Q04DX002 (ip), vehicle: Klucel (hydroxypropylcellulose) (HPC) 90 % of control

C(#Cc1ccccc1)COCC1CO1 (configuration not stated)
inactive: dose: 50.0 mg/kg/injection, schedule: Q04DX003 (ip), vehicle: saline with Tween-80 95 % of control | [15] 98 % of control | [16] 91 % of control

CSc1cccc[n+]1[O-]
inactive: [4] 105 % of control | dose: 100.0 mg/kg/injection, schedule: Q04DX002 (ip), vehicle: saline 103 % of control and 108 % of control | [6] 108 % of control | dose: 200.0 mg/kg/injection, schedule: Q04DX002 (ip), vehicle: saline 105 % of control | [8] 101 % of control | dose: 400.0 mg/kg/injection, schedule: Q04DX002 (ip), vehicle: saline 108 % of control and 118 % of control

O=C(O)c1cc(O)ccc1O
inactive: [15] 100 % of control | [16] 97 % of control

Cc1ccc(S(=O)(=O)N(C)c2ccc(C#N)cc2F)cc1
inactive: [5] 102 % of control | [7] 98 % of control | [9] 102 % of control

O=C(O)CN(Cc1ccccc1)Sc1ccccc1[N+](=O)[O-]
inactive: dose: 50.0 mg/kg/injection, schedule: Q01DX009 (ip), vehicle: other 98 % of control | dose: 100.0 mg/kg/injection, schedule: Q01DX009 (ip), vehicle: other 91 % of control | [17] 98 % of control | [18] 96 % of control

CC(Br)C(=O)Nc1ccccc1 (configuration not stated)
inactive: [13] 93 % of control | [15] 101 % of control | [14] 103 % of control | [16] 95 % of control | [19] 90 % of control | [20] 95 % of control

C#CC(C)(C)OC(C)=O
inactive: [1] 99 % of control | [15] 92 % of control | [2] 99 % of control | [16] 103 % of control | [3] 104 % of control | [20] 92 % of control

COC(CN(C)CC(OC)OC)OC
inactive: [4] 107 % of control | [5] 97 % of control | [6] 96 % of control | [7] 112 % of control | [8] 98 % of control | [9] 105 % of control

CCCCCCCCCCCCCCCCCC(=O)OCCC(C)CCCC(C)C (configuration not stated)
inactive: [17] 96 % of control | [18] 98 % of control | dose: 400.0 mg/kg/injection, schedule: Q04DX003 (ip), vehicle: other 88 % of control

N#CNc1nc(-c2ccccc2)cc(-c2ccccc2O)n1
inactive: [10] 98 % of control | [11] 95 % of control | [12] 109 % of control

COc1cc(/C=C2\NC(=O)NC2=O)ccc1O
inactive: [14] 86 % of control | [19] 90 % of control
